This passage reports EC50, IC50 and AC50 results from ChEMBL document CHEMBL1201862, “PubChem BioAssay data set” (2004).

Molecules are shown by their SMILES. Active and inactive are the calls of the source. For most assays here, no stated cut-off is given here; in the data, actives have a measured EC50 and inactives only a lower limit. Some results are limits rather than exact numbers.

A word on the AC50: it is the midpoint of the concentration-response curve, whichever way the signal moves.

Assay [1] deals with T1, RNA-binding protein pos-1 (Caenorhabditis elegans, UniProt G5EF15).
T1 sequence (G5EF15 whole entry): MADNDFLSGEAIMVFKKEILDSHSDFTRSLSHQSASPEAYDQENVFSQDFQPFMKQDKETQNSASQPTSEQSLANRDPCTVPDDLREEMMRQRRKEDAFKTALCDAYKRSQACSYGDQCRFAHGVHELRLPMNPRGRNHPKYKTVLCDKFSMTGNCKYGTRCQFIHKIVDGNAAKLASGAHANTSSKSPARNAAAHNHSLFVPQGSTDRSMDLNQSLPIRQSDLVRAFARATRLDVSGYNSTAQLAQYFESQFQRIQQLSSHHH
Put plainly: inhibitors of POS-1/mex-3 RNA binding, dose response, biochemical, fluorescence polarization (AID 1964).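 Further: purified POS-1 fused to maltose binding protein made in E. coli; potency of compounds blocking POS-1 binding to fluorescent RNA.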 Background: In fluorescence polarisation assays a small probe gives low polarisation when free and higher when bound to something large.

In assay [2] the target is T2, Zinc finger protein mex-5 (Caenorhabditis elegans, UniProt Q9XUB2).
T2 sequence (Q9XUB2 whole entry): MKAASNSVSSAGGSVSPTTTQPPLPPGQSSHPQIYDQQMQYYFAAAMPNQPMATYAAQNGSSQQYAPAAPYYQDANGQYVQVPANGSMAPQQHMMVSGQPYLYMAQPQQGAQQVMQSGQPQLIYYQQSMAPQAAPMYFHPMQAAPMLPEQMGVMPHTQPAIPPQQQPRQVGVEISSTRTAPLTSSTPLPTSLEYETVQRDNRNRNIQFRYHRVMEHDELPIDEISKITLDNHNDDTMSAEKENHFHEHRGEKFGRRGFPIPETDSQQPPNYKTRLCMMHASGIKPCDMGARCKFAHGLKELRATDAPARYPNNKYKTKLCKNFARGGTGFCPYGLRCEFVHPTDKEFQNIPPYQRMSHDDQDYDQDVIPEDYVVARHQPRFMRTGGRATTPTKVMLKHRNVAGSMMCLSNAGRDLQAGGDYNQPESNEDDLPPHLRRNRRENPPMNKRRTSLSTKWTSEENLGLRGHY
Description: MEX-5/TCR-2 RNA interaction inhibitors, dose response, biochemical, C. elegans, fluorescence polarization (AID 1960).

Assay [3] in a line: Luminescence Cell-Based Dose Response HTS to Identify Activators of Luciferase Translation or Activity in H4 […] Cells. [Related pubchem assays: 1829 (Project Summary), 1814 (Primary HTS)]. Type of assay: functional.
Assay [4] can be described thus: Luminescence Cell-Based Dose Confirmation HTS to Identify Activators of 5'UTR Stem-Loop Driven Alpha-Synuclein mRNA Translation in H4 Neuroglioblastoma Cells. [Related pubchem assays: 1829 (Project Summary), 1814 (Primary HTS)]. Type of assay: functional.
Assay [5] deals with H4. Description: Luminescence Cell-Based Dose Response HTS to Identify Activators of 5'UTR Stem-Loop Driven Prion Protein mRNA Translation in H4 Neuroglioblastoma Cells. [Related pubchem assays: 1829 (Project Summary), 1814 (Primary HTS)]. Type of assay: functional. As to conditions: Homo sapiens.
The target of assay [6] is T3, Corticotropin-releasing factor receptor 2/Corticotropin-releasing factor-binding protein (Homo sapiens, UniProt P24387+Q13324).
T3 sequence (Q13324 whole entry): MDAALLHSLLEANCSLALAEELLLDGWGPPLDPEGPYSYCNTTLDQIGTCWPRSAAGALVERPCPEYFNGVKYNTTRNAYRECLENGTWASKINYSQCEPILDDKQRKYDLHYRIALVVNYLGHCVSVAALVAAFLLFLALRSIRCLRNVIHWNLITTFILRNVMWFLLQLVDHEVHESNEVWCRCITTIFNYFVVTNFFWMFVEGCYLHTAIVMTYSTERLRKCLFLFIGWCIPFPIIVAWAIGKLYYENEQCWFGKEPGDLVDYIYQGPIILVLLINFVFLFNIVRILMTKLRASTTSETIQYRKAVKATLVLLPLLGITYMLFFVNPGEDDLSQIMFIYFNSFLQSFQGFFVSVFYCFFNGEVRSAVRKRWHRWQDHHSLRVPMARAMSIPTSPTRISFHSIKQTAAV
T3 sequence (P24387 whole entry): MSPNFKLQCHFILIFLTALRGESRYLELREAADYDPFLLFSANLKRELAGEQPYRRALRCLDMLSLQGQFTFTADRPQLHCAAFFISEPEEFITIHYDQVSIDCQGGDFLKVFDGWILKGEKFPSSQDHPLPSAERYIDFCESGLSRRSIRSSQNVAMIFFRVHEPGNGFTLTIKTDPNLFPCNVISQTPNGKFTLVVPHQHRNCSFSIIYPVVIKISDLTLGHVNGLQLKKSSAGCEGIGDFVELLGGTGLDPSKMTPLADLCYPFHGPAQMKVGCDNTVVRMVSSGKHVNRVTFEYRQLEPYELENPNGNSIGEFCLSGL
Description: activators of CRF receptor 2 with binding protein – uHTS hits, confirmation (AID 602473). The conditions noted are these: read-out: EC50_Mean. The class given is functional.

Assay [7] deals with T3, Corticotropin-releasing factor receptor 2/Corticotropin-releasing factor-binding protein. Put plainly: Dose Response confirmation of uHTS hits for small molecule antagonists of the CRF-binding protein and CRF-R2 receptor complex. Type of assay: functional. As to conditions: read-out: IC50_Mean.
Assay [8] addresses FAD-linked sulfhydryl oxidase ALR (Homo sapiens, UniProt P55789). Put plainly: inhibitors of human ALR sulfhydryl oxidase, dose response, biochemical, H2O2 detection, luminescence, cherry-pick (AID 493248).
Assay [9] has as its system INS1. Description: beta cell apoptosis inhibitors, cytokine rescue, dose response, luminescence, retest (AID 449756).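 Further: cell death triggered by IL-1 beta plus TNF-alpha plus IFN-gamma mixture; protective hits raise ATP signal compared with cytokine alone wells.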 Type of assay: functional, cell-based. As to conditions: Rattus norvegicus.
Assay [10] addresses T4, Rac GTPase-activating protein 1 (Homo sapiens, UniProt Q9H0H5).
T4 sequence (Q9H0H5 whole entry): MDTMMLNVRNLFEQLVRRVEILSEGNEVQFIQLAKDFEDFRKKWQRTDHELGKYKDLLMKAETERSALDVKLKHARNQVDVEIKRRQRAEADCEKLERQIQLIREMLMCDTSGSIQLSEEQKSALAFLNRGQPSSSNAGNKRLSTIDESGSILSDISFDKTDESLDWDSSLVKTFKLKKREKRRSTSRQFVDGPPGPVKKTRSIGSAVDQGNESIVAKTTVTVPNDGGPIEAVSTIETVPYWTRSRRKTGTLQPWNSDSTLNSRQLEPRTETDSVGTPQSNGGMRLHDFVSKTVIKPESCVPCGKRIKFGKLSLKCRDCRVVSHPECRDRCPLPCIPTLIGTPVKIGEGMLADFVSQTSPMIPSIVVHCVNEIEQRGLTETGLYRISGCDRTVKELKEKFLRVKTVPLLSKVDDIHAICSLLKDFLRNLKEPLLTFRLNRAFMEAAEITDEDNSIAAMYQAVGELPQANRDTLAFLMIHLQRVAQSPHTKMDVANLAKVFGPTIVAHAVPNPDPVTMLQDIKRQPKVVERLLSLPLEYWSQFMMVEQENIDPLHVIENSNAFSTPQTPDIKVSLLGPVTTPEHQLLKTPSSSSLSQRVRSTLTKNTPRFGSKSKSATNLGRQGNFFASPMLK
Description: MgcRacGAP GTPase-activating activity inhibitors, confirmation, biochemical, ADP Hunter fluorescence, primary and confirmatory (AID 624330). The class given is functional.

A short description of assay [11]: cytotoxicity toward NIH3T3 fibroblasts, dose response, counter-screen, cell-based, ATP luminescence, mouse fibroblasts (AID 2010).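 Further: cells exposed to compound for about 90 hours before reading.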 The class given is functional. In general terms: Counterscreens check selectivity or assay interference.
A short description of assay [12]: inhibitors of intracellular T. cruzi replication, confirmation, NIH3T3 host cells, beta-gal luminescence (AID 2044).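 Further: intracellular parasites grown in NIH/3T3 mouse fibroblasts as host cells; luminescent beta-galactosidase reporter signal from transgenic T. cruzi replicating inside host cells; inhibitors lower the luminescence signal.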 The class given is functional, cell-based.

Chain of FAD-linked sulfhydryl oxidase ALR (P55789 whole entry): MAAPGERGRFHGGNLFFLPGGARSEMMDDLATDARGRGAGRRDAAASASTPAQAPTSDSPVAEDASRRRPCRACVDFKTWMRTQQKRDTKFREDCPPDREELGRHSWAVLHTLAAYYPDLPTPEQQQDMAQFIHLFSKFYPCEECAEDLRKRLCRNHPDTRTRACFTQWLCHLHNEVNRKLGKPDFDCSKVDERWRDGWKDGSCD

As for `O=C(Cn1cc(C=C2C(=O)NC(=O)NC2=O)c2ccccc21)NCC1CCCO1` (stereo not given), the values for the EC50 in [1] and in [2] were 16.7 µM (active) and 10.1 µM (active), respectively.
For the compound `CC(C)(C)C(=O)N1CCN(c2nc3ccc(Cl)cc3s2)CC1`, the EC50 was 0.244 µM (active) in [3], 0.369 µM (active) in assay [4] and 15.2 µM (active) in [5].
Take `CCN(CC)S(=O)(=O)c1ccc2c(c1)N(CC(=O)NCc1ccco1)C(=O)CO2`: the EC50 in assay [6] is > 53 µM (inactive). In assay [7], the IC50 is > 47.1 µM (inactive).
As for `O=C(C[n+]1cc(-c2ccc(F)cc2)n2c1CCC2)N1c2ccccc2Sc2ccccc21`, the EC50 in assay [3] is 1.06 µM (active); in assay [4], 7.4 µM (active); in assay [5], 9.69 µM (active).
Consider `COc1ccc2c(-c3ccccc3)cc(SCC(N)=O)nc2c1`, for which the EC50 in assay [1] and in assay [2] was > 300 µM (not active) each time.
Take `Cc1cc(NC(=O)C(C)C)ncc1NC(=O)CCc1ccccc1`: the EC50 in assay [6] is > 53 µM (inactive).
With `O=C(NCc1ccccn1)C1Nc2ccc(OC(F)(F)F)cc2C2C=CCC12` (stereo not given), the EC50 in assay [1] and in assay [2] was > 300 µM (not active) throughout.
In the case of `O=Nc1c(-c2ccccc2)cc2ccccn12`, the results for the EC50 in assay [3], in [4] and in assay [5] were 12.1 µM (active), 13.6 µM (active) and 27.4 µM (active), respectively.
The corresponding values for `Cn1c2ccccc2c2ncn(CCC3=CCCCC3)c(=O)c21` are 21.7 µM (active), 24 µM (active) and 29.8 µM (active).
In the case of `O=C(Nc1nc(-c2ccccc2)ns1)c1cccs1`, the EC50 in [3] is 1.32 µM (active); in assay [5], > 120 µM (not active). Besides, in [8], the AC50 is 81 µM (active).
For the compound `O=[N+]([O-])c1cccc(-c2cn3nc(-c4ccccc4)c(-c4ccccc4)nc3n2)c1`, the EC50 in [1] was > 300 µM (not active); in assay [2], 99 µM (active). In addition, in assay [9], the AC50 is 11 µM (active).
Consider `CCC(=O)Nc1cc(C)c(NC(=O)CCc2ccccc2)cn1`, for which the EC50 was 24 µM (active) in assay [1] and 26 µM (inconclusive) in [2].
Turning to `Cc1ccc(-n2nnnc2SCC(=O)Nc2sc(C)c(C)c2C#N)cc1C`, the EC50 in [3] is 15.6 µM (active); in assay [4], 15.9 µM (active); in [5], > 120 µM (not active).
With `COc1cc(/C=N/NC(=O)c2cccc(N3CCCC3=O)c2)ccc1O`, in assay [10], the IC50 was 30.9 µM (active). Also, in assay [8], the AC50 was 2.71 µM (active).
`Cc1cc(C)cc(N2C(=O)CSC2c2ccccn2)c1` (stereo not given): the AC50 in assay [8] was 0.731 µM (active).
Regarding `Cc1cc(C=C2C(=O)c3ccccc3C2=O)c(C)n1-c1ccc(Cl)cc1`, the EC50 in [1] and in [2] was > 300 µM (not active) throughout.
As to `Cc1cccn2c(=O)c(C=O)c(Nc3ccc(S(N)(=O)=O)cc3)nc12`, the EC50 in assay [3] was 26.4 µM (active); in assay [4], 14.8 µM (active); in assay [5], > 120 µM (not active).
`COc1cc(/C=C/c2cc(C(=O)O)c3ccccc3n2)cc(OC)c1O`: the AC50 in assay [8] was 0.141 µM (active).
Take `CC(C)(C)OC(=O)NCCCC1=CC2=CC(=O)C(C)(OC(=O)C3CCCC3)C(=O)C2=CO1` (stereo not given): the EC50 in assay [1] is 18.8 µM (active); in [2], 18.7 µM (active).
In the case of `O=C(O)C1CCN(C(=O)OCc2ccccc2)CC1`, the EC50 was 87.1 µM (active) in [3], 0.602 µM (active) in [4] and 6.56 µM (active) in [5].
For the compound `Cc1cccn2c(=O)c3cc(C(=O)NCc4ccco4)c(=N)n(C(C)C)c3nc12`, the figures for the EC50 in [1] and in assay [2] were 40.5 µM (active) and 45.5 µM (active), respectively.
On to `CCN(CC)S(=O)(=O)c1ccc(/N=N/c2c(C)[nH]n(C(N)=S)c2=O)cc1`, for which, in [8], the AC50 was 0.782 µM (active).
For the compound `ClCc1nc2ccccc2n1Cc1ccccc1`, the results for the EC50 in [1] and in assay [2] were 2.24 µM (inconclusive) and 3.93 µM (inconclusive), respectively.
As for `CC1CCC2C(C1)Nc1c(C(=O)O)cccc1C2(C)C` (stereo not given), in assay [8], the AC50 was 4.55 µM (active).
Turning to `Cc1cccc(-n2c(N)cc(=O)[nH]c2=S)c1`, the EC50 in assay [3], in [4] and in assay [5] was > 120 µM (not active) throughout.
In the case of `Fc1ccc(Nc2c3c(nc4ccccc24)CCC3)cc1`, the EC50 in [11] is > 60 µM (inconclusive); in [12], 2.48 µM (active). In addition, the AC50 in assay [8] was 6.31 µM (active).
For `O=C(CSCC(=O)N1CCCCC1)Nc1nc(-c2ccc(Cl)s2)cs1`, the figures for the EC50 in assay [3], in assay [4] and in [5] were 8.35 µM (active), 29.7 µM (active) and 10.9 µM (active), respectively.
Take `O=C(N/N=C\c1ccc(-c2ccc(Cl)c(Cl)c2)o1)C(=O)N1CCCC1`: the EC50 was 49.5 µM (active) in assay [1] and 29.6 µM (active) in assay [2].
`O=C(Nc1c(C(=O)O)[nH]c2ccccc12)NC1CCCCC1`: in assay [8], the AC50 was 1.26 µM (active).
Turning to `CCOCCCNc1nc2nc3ccc(C)cn3c(=O)c2cc1C(=O)NCC1CCCO1` (stereo not given), the EC50 in assay [1] and in [2] was > 300 µM (not active) in each case.
With `CC1(C)CC(=O)C2=C(C1)OC(N)=C(C#N)C2c1cc2c(cc1[N+](=O)[O-])OCO2` (stereo not given), the figures for the EC50 in assay [6], in assay [1] and in assay [2] were 5.48 µM (active), 18 µM (active) and 14.3 µM (active), respectively.
For the compound `COc1ccc(N2C(=O)CSC2c2ccccc2[N+](=O)[O-])cc1` (stereo not given), the half-maximal activity concentration (AC50) in assay [8] was 4.55 µM (active).
